Values quoted from earlier work as cited in publication PMC11292818 (ACS Omega, 2024).

Biological target: acetylcholinesterase (AChE) (Homo sapiens, UniProt P22303)
Conditions: read-out: IC50 against acetylcholinesterase

Sequence of acetylcholinesterase (AChE) (P22303 32-614, species assumed): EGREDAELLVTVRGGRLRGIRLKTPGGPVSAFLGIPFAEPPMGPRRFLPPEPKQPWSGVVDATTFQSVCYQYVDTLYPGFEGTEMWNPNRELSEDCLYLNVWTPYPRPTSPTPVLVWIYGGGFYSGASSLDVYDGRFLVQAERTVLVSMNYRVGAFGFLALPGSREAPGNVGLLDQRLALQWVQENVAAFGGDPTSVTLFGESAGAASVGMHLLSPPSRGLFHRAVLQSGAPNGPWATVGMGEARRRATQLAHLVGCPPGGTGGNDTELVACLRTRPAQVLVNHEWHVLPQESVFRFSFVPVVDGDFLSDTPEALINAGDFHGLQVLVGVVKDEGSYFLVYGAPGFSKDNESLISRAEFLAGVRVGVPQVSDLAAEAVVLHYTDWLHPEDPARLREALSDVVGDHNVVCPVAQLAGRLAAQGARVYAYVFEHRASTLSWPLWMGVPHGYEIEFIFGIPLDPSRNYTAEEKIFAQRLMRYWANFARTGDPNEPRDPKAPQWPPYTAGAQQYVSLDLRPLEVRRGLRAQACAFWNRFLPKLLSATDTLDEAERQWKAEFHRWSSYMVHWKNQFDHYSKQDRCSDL

Question: For `COc1cc(O)c(OC)c(O)c1C(=O)/C=C/c1ccccc1` [Compound 3, 2′,4′-dihydroxy-3′,6′-dimethoxychalcone], which IC50 is on record?
Answer: 20.1 µM

Question: For `CC(C)=CCc1c(O)ccc(C(=O)/C=C/c2ccc(O)cc2)c1O` [Compound 4, isobavachalcone], which IC50 is on record?
Answer: 18.3 µM
